Measured values published in PubChem BioAssay (NCI).
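48-hour exposure; five concentrations; linearly interpolated endpoints. The concentration for 50% growth inhibition is given as GI50. Definition used: TGI = concentration required for complete inhibition of growth.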

Legend:
Test in all cases: NCI tumour cell line growth inhibition, 48 h
[1] = tested on: RXF 393 renal
[2] = tested on: UACC-62 melanoma
[3] = tested on: K-562 leukemia
[4] = tested on: DMS 273 small cell lung
[5] = tested on: A549 NSCLC
[6] = tested on: CAKI-1 renal
[7] = tested on: HOP-62 NSCLC
[8] = tested on: NCI-H23 lung
[9] = tested on: SNB-78 CNS
[10] = tested on: HOP-92 NSCLC
[11] = tested on: OVCAR-4 ovarian
[12] = tested on: ACHN renal
[13] = tested on: SF-295 CNS
[14] = tested on: EKVX NSCLC
[15] = tested on: CCRF-CEM leukemia
[16] = tested on: COLO 205 colon
[17] = tested on: NCI-H460 lung
[18] = tested on: XF 498 CNS
[19] = tested on: DLD-1 colon
[20] = tested on: MALME-3M melanoma
[21] = tested on: SF-268 CNS
[22] = tested on: SK-MEL-28 melanoma
[23] = tested on: UACC-257 melanoma
[24] = tested on: SW-620 colon
[25] = tested on: HCC-2998 colon
[26] = tested on: SK-MEL-5 melanoma
[27] = tested on: OVCAR-3 ovarian
[28] = tested on: SF-539 CNS
[29] = tested on: HT29 colon
[30] = tested on: HCT-116 colon
[31] = tested on: TK-10 renal
[32] = tested on: LOX IMVI melanoma
[33] = tested on: IGROV1 ovarian
[34] = tested on: U251 CNS
[35] = tested on: SN12C renal
[36] = tested on: SK-OV-3 ovarian
[37] = tested on: OVCAR-8 ovarian
[38] = tested on: RPMI-8226 leukemia
[39] = tested on: HOP-18 NSCLC
[40] = tested on: NCI-H226 lung
[41] = tested on: DMS 114 small cell lung
[42] = tested on: OVCAR-5 ovarian
[43] = tested on: KM12 colon
[44] = tested on: KM20L2 colon
[45] = tested on: SR leukemia
[46] = tested on: M14 melanoma
[47] = tested on: 786-0 renal
[48] = tested on: UO-31 renal
[49] = tested on: MOLT-4 leukemia
[50] = tested on: SNB-19 CNS
[51] = tested on: M19-MEL melanoma
[52] = tested on: HL-60(TB) leukemia
[53] = tested on: LXFL 529 NSCLC
[54] = tested on: RXF-631 renal

With `CC[O-].CC[O-].[O-]c1ccccc1C=Nc1ccccc1.[O-]c1ccccc1C=Nc1ccccc1.[Ti+4]` the GI50 [1] was > 100 µM, the TGI [1] was > 100 µM and the GI50 [2] was > 100 µM. For the same compound, the TGI [2] was > 100 µM, the GI50 [3] was 789 nM and the TGI [3] was > 100 µM. The GI50 [4] was 21 µM, the TGI [4] was > 100 µM and the GI50 [5] was > 100 µM. The TGI [5] was > 100 µM, the GI50 [6] was 85.1 µM and the TGI [6] was > 100 µM. The GI50 [7] was > 100 µM, the TGI [7] was > 100 µM and the GI50 [8] was > 100 µM. The TGI [8] was > 100 µM, the GI50 [9] was > 100 µM and the TGI [9] was > 100 µM. For the same compound, the GI50 [10] was > 100 µM, the TGI [10] was > 100 µM and the GI50 [11] was > 100 µM. For the same compound, the TGI [11] was > 100 µM, the GI50 [12] was 23.8 µM and the TGI [12] was > 100 µM. The GI50 [13] was > 100 µM, the TGI [13] was > 100 µM and the GI50 [14] was > 100 µM. For the same compound, the TGI [14] was > 100 µM, the GI50 [15] was 10.9 µM and the TGI [15] was > 100 µM. The GI50 [16] was 96.8 µM, the TGI [16] was > 100 µM and the GI50 [17] was > 100 µM. For the same compound, the TGI [17] was > 100 µM, the GI50 [18] was > 100 µM and the TGI [18] was > 100 µM. For the same compound, the GI50 [19] was > 100 µM, the TGI [19] was > 100 µM and the GI50 [20] was > 100 µM. For the same compound, the TGI [20] was > 100 µM, the GI50 [21] was > 100 µM and the TGI [21] was > 100 µM. The GI50 [22] was > 100 µM, the TGI [22] was > 100 µM and the GI50 [23] was > 100 µM. For the same compound, the TGI [23] was > 100 µM, the GI50 [24] was 9.24 µM and the TGI [24] was > 100 µM. The GI50 [25] was 82.9 µM, the TGI [25] was > 100 µM and the GI50 [26] was 45.5 µM. The TGI [26] was > 100 µM, the GI50 [27] was > 100 µM and the TGI [27] was > 100 µM. The GI50 [28] was > 100 µM, the TGI [28] was > 100 µM and the GI50 [29] was > 100 µM. The TGI [29] was > 100 µM, the GI50 [30] was 31.8 µM and the TGI [30] was > 100 µM. For the same compound, the GI50 [31] was > 100 µM, the TGI [31] was > 100 µM and the GI50 [32] was 1920 nM. For the same compound, the TGI [32] was > 100 µM, the GI50 [33] was > 100 µM and the TGI [33] was > 100 µM. For the same compound, the GI50 [34] was > 100 µM, the TGI [34] was > 100 µM and the GI50 [35] was > 100 µM. The TGI [35] was > 100 µM, the GI50 [36] was > 100 µM and the TGI [36] was > 100 µM. For the same compound, the GI50 [37] was 97.3 µM, the TGI [37] was > 100 µM and the GI50 [38] was > 100 µM. For the same compound, the TGI [38] was > 100 µM, the GI50 [39] was > 100 µM and the TGI [39] was > 100 µM. For the same compound, the GI50 [40] was > 100 µM, the TGI [40] was > 100 µM and the GI50 [41] was 75.2 µM. The TGI [41] was > 100 µM, the GI50 [42] was > 100 µM and the TGI [42] was > 100 µM. For the same compound, the GI50 [43] was 26.7 µM, the TGI [43] was > 100 µM and the GI50 [44] was 23.7 µM. For the same compound, the TGI [44] was > 100 µM, the GI50 [45] was 26.9 µM and the TGI [45] was > 100 µM. The GI50 [46] was > 100 µM, the TGI [46] was > 100 µM and the GI50 [47] was > 100 µM. The TGI [47] was > 100 µM, the GI50 [48] was > 100 µM and the TGI [48] was > 100 µM. The GI50 [49] was 28.4 µM, the TGI [49] was > 100 µM and the GI50 [50] was > 100 µM. For the same compound, the TGI [50] was > 100 µM, the GI50 [51] was > 100 µM and the TGI [51] was > 100 µM. The GI50 [52] was > 100 µM, the TGI [52] was > 100 µM and the GI50 [53] was 2940 nM. For the same compound, the TGI [53] was > 100 µM, the GI50 [54] was > 100 µM and the TGI [54] was > 100 µM.
